Test results reported in paper PMC6930524, “A Prospective Repurposing of Dantrolene as a Multitarget Agent for Alzheimer’s Disease” (Molecules, 2019).

Key:
[1] = biological target: T1, human recombinant AChE (hAChE) (Homo sapiens, UniProt P22303); test: biochemical; type: biochemical
T1 construct: purchased Sigma-Aldrich Europe (Milan, Italy)
Description: An already published method was used to apply the Ellman’s spectrophotometric assay to the 96-well plate technique. […] Experiments were performed in duplicate in transparent, flat-bottomed polystyrene 96-well microtiter plates, and readings made with Tecan Infinite M1000 Pro instrument.

[2] = biological target: T2, native CAC (mitochondrial rat liver extract) (Rattus norvegicus, UniProt P97521); test: Transport activity of native CAC from mitochondrial extract reconstituted into liposomes; type: biochemical; conditions: after 30 min of incubation; concentration range 1–200 μM; read-out: EC50 of activation of native CAC
T2 construct: Mitochondrial rat liver extract (0.3 mg proteins in 3% Triton X-100) containing native CAC was reconstituted into liposomes; from tissue; host or cells: rat liver mitochondrial Triton X-100 extract
T2 sequence (P97521 1-301): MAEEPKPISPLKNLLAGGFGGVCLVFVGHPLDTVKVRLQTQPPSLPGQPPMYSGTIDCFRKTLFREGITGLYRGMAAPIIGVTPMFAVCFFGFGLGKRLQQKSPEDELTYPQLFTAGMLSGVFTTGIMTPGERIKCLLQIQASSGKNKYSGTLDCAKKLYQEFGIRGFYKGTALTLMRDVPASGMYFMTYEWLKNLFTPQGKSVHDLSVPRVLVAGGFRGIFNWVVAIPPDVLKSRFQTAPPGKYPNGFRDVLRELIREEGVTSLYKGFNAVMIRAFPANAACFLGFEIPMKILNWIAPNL
Description: (§1) To detect the effect of DAN on native CAC, mitochondrial extract was reconstituted into liposomes and transport activity was measured adding various concentrations of compound. In Figure 7A, the dose–response curve is shown. […] Thus, the effect of different concentrations of DAN was tested also on the purified recombinant wild-type (WT) CAC carrier reconstituted into liposomes, measuring the antiport rate of carnitine.
Mitochondrial rat liver extract (0.3 mg proteins in 3% Triton X-100) containing native CAC was reconstituted into liposomes by removing the detergent from the mixed micelles through a hydrophobic ion-exchange column containing the resin Amberlite XAD-4, as described previously. […]
(§2) Before starting the transport activity, proteoliposomes were passed through a Sephadex G-75 column (0.7 cm diameter; 15 cm height; Pharmacia, Milan, Italy) to remove the external substrate. […] Finally, the external substrate was removed by chromatography on Sephadex G-75 columns (0.7 cm diameter; 10 cm height) and intraliposomal radioactivity was measured by a liquid scintillation counter (Perkin Elmer, Milan, Italy).
EC50 values were calculated using AATBioquest EC50 calculator [60]. […]

[3] = biological target: T3, recombinant wild-type (WT) CAC (Rattus norvegicus, UniProt P97521); test: Transport activity of purified recombinant WT CAC reconstituted into liposomes; type: biochemical
T3 construct: made in house; host or cells: Escherichia coli C0214
T3 sequence (P97521 1-301): T2 sequence (P97521 1-301)
Description: as §1
The reducing properties of DAN were studied on the recombinant WT CAC with the protein at different states of oxidation. Figure 8B highlights that when the carrier was incubated during the transport activity with 1 mM dithioerythritol (DTE), 10 µM DAN was able to reduce a major aliquot of oxidized protein (70% recovery of activity compared to the control). […] To identify the cysteines responsible for the activation of the CAC carrier, the proteoliposomes of the WT protein and the mutants C136S, C155S, C136/155S, and C-lessV (C23V/C58V/C89S/C136V/C155V/C283S) were incubated with 10 μM DAN. […] Further evidence of the reducing action of DAN on CAC was obtained by oxidation of the reconstituted WT protein under controlled conditions, i.e., in the presence or absence of hydrogen peroxide and its subsequent degradation by the enzyme catalase. […] The addition of 20 µM DAN led to a significant recovery (about 80%) of the transport function, after treatment of the carrier with H2O2.
The previously constructed pMW7-WTrat CAC recombinant plasmid was used as a template to introduce mutations in the CAC protein using complementary mutagenic primers and the High Fidelity PCR System (Roche, Basel, Switzerland). The PCR products were purified by the QIAEX II Gel Extraction Kit (QIAGEN, Milan, Italy), digested with the restriction enzymes Nde I and Hind III (New England Biolabs, Ipswich, MA, USA) and ligated into the pMW7 cloning vector (given as a gift). All resulting pMW7-rat CAC constructs were verified by DNA sequencing. Except for the desired base changes, all the sequences corresponded to the CAC coding sequence. Bacterial overexpression was obtained using the expression vector of Escherichia coli C0214 (given as a gift). Wild-type and mutants rat CAC inclusion body fractions were isolated from E. coli, solubilized, and purified as previously described.
Mitochondrial rat liver extract (0.3 mg proteins in 3% Triton X-100) containing native CAC was reconstituted into liposomes by removing the detergent from the mixed micelles through a hydrophobic ion-exchange column containing the resin Amberlite XAD-4, as described previously. The reconstitution mixture of mitochondrial or recombinant CAC proteins was composed of protein, 1% Triton X-100, 10 mg of egg yolk phospholipids (L-α-phosphatidylcholine from fresh turkey egg yolk), in the form of sonicated liposomes, 30 mM NaH2PO4 at pH 7.0, 15 mM carnitine, in a final volume of 680 μL. This mixture was passed 15 times, at room temperature, through the same Amberlite column (Pasteur pipette filled with 0.5 g resin) pre-equilibrated with a buffer containing 30 mM NaH2PO4 at pH 7.0 and 15 mM carnitine.
Before starting the transport activity, proteoliposomes were passed through a Sephadex G-75 column (0.7 cm diameter; 15 cm height; Pharmacia, Milan, Italy) to remove the external substrate. The turbid eluate (550 μL) from the Sephadex column was collected and used for transport measurement by the inhibitor-stop method. For uptake measurements, transport at 25 °C was started by adding 0.1 mM [^3H]-carnitine to proteoliposomes and stopped by the addition of 0.1 mM NEM. In control samples, the inhibitor was added together with the labeled substrate at time zero. The experimental values were corrected by subtracting control values. […]

[4] = system: CAC mutants C136S, C155S, C136/155S, C-lessV; test: Transport activity of cysteine-modified CAC mutants in proteoliposomes; type: biochemical, rat; conditions: 10 μM, C-less V compared with WT
Description: The reducing properties of DAN were studied on the recombinant WT CAC with the protein at different states of oxidation. Figure 8B highlights that when the carrier was incubated during the transport activity with 1 mM dithioerythritol (DTE), 10 µM DAN was able to reduce a major aliquot of oxidized protein (70% recovery of activity compared to the control). […] To identify the cysteines responsible for the activation of the CAC carrier, the proteoliposomes of the WT protein and the mutants C136S, C155S, C136/155S, and C-lessV (C23V/C58V/C89S/C136V/C155V/C283S) were incubated with 10 μM DAN. […] Further evidence of the reducing action of DAN on CAC was obtained by oxidation of the reconstituted WT protein under controlled conditions, i.e., in the presence or absence of hydrogen peroxide and its subsequent degradation by the enzyme catalase. […]
as §2

T1 sequence (P22303 32-614): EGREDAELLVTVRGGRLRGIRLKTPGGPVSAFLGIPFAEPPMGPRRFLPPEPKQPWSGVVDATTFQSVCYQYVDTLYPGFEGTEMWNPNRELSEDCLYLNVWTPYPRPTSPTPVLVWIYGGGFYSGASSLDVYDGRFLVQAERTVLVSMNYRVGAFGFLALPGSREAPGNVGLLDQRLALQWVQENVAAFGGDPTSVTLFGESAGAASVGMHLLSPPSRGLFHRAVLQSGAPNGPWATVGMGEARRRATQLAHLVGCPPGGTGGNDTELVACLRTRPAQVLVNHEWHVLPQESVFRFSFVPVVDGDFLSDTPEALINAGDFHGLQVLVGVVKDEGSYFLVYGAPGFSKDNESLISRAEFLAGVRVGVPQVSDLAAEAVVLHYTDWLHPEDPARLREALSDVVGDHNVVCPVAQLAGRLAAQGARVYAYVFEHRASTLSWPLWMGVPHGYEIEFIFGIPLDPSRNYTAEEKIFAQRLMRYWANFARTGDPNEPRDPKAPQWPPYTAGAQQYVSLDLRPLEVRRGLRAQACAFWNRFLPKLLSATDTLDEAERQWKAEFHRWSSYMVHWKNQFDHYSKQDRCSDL

Compound: O=C1CN(/N=C/c2ccc(-c3ccc([N+](=O)[O-])cc3)o2)C(O)=N1 [Dantrolene]
- IC50 [1]: 4.19 ± 0.73 µM
- hAChE inhibition mechanism ([1]; Michaelis–Menten / Lineweaver–Burk, substrate acetylthiocoline): noncomp.
- potency of AChE inhibition relative to galantamine ([1]; fold lower than reference compound galantamine): seven-fold lower
- Ki ([1]; substrate acetylthiocoline, mean ± SEM): 6.3 ± 0.15 µM
- EC50 [2]: 18 ± 5 µM
- transport activity of WT CAC over time compared to the control ([3]; 10 μM, average values over time intervals): around 160%
- recovery of activity compared to the control ([3]; 10 µM, carrier incubated with 1 mM DTE): 70%
- recovery of activity ([3]; 10 µM, carrier incubated with 50 mM DTE): 25%
- increase in transport activity on WT ([3]; 10 μM, proteoliposomes of WT protein): 180%
- recovery of the transport function after H2O2 ([3]; 20 µM, after 1 mM H2O2 for 10 min at 37 °C (activity decreased to about 50% without compound)): about 80%
- EC50 ([3]; after 30 min of incubation, read-out: EC50 of activation of recombinant WT CAC): 9.3 ± 3.1 µM
- concentration for whole activation of the WT protein ([3]; dose–response curve, 30 min): above 50 μM
- increase in transport activity on cysteine mutants [4]: significantly lost
